Measured values reported in article PMC3328449, “Inhibition of Diacylglycerol–Sensitive TRPC Channels by Synthetic and Natural Steroids” (PLoS ONE, 2012).
pIC50: −log10 of the molar value. Several values for one entry are separate records, joined by “and”; a condition that tells them apart may be missing. Equal entries are not always repeated.

Target: T1, mTRPC5 (Mus musculus, UniProt Q9QX29)
T1 construct: expressed in transfected cells
T1 sequence (Q9QX29 1-975): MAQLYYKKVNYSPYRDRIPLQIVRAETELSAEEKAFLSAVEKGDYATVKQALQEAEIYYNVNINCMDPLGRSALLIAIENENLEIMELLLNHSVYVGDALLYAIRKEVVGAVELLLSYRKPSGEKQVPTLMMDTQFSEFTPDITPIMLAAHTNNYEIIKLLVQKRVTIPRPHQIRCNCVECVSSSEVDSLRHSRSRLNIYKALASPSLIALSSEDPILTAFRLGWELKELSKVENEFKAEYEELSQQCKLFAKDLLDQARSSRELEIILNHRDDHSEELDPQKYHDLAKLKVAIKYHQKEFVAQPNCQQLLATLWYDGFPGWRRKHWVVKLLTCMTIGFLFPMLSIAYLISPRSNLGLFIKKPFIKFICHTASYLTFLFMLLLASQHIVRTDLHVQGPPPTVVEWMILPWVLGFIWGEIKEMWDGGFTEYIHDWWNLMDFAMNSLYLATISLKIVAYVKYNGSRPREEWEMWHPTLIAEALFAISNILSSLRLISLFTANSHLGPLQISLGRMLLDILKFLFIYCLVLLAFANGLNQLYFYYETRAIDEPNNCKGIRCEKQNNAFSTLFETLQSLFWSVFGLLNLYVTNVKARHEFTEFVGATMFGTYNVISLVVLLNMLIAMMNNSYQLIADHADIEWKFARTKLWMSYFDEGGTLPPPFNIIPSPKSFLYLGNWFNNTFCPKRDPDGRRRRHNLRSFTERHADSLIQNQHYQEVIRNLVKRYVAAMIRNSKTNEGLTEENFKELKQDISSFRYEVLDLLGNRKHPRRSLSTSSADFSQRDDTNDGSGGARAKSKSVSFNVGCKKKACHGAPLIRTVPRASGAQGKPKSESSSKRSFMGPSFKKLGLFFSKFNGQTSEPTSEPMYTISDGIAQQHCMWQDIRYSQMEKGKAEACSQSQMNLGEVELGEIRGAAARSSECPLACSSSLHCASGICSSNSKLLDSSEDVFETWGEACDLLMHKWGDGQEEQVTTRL
Assay: Whole-cell patch clamp, AlF4- evoked TRPC5 currents
Type: cell-based
Protocol: Cells were grown at 37°C in a humidified atmosphere (5% or 7% CO2) under standard cell culture conditions. Stable human embryonic kidney (HEK) cell lines expressing recombinant mTRPC4ß (GenBank accession number AAC05178); mTRPC5 (GenBank accession number NM_009428) or hTRPC6 (GenBank accession number AF080394) under the control of a tetracycline-inducible promoter were generated using the Flp-In T-Rex (FITR) system (Invitrogen, Karlsruhe, Germany). […]
Cells grown on poly-L-lysine-coated coverslips were continuously superfused with extracellular solution and substances were applied using an ALA BPS-8 perfusion system (ALA Scientific Instruments, Westbury, USA). […] Cells were held at −70 mV, and current-voltage (I–V) relationships were routinely measured every 2 or 3 s by applying voltage ramps (180 ms) from −100 mV to +80 mV. […]
For statistical analysis, analysis of variance was performed with Origin 6.0 software (Microcal Software Inc., Northampton, USA). […] IC50 were calculated with SigmaPlot (Systat software, San Jose, USA) using the sigmoidal Hill-model: f = 100 (C^n/(IC50 ^n+C^n)); where f is the inhibition, C is the applied drug concentration and n is the Hill coefficient. […] Averaged data is expressed as means ± SEM.

## C#C[C@]1(OC(C)=O)CC[C@H]2[C@@H]3CCC4=CC(=NO)CC[C@@H]4[C@H]3CC[C@@]21CC (mixture of isomers) [norgestimate]
Fit to dose-response equation
  Hill slope, TRPC5 current inhibition: 1.43
whole-cell patch clamp, AlF4- infusion, TRPC5 HEK-FITR cells, read-out: IC50, TRPC5 current inhibition
  pIC50: < 5.00 and 4.87 and ~4.85
